# Source: patent US3998790A, “Phenoxy-hydroxypropylamines, their preparation, and method and pharmaceutical preparations for treating cardiovascular diseases” (priority 1974, dated 1976)
# Tested on: heart rate
# Test: intrinsic stimulating activity on heart rate in reserpinized cats
# Format: in vivo, cat
# Details: Felis catus, iv, read-out: Intrinsic activity % of maximal isoprenaline heart rate
# Description: (§1) Compounds prepared according to the examples were evaluated for intrinsic activity and blocking effect on heart rate and: peripheral vasodilator response to isoprenaline in the cat. The acute LD50 in mice was evaluated.
# (§2) Cats weighing between 1.8 and 2.8 kg were anaesthetized with 30 mg/kg pentobarbital sodium, intraperitoneally. The cats had been pretreated with reserpine, 5 mg/kg intramuscular, about 18 hours before the experiment. Bilateral vagotomy was performed before the start of the experiment.
# The heart rate was recorded on an Offner cardiotachometer triggered by the EKG-complex. Mean arterial blood pressure was recorded from a carotid artery. The peripheral resistance was measured in one of the legs of the cat in the following way: The femoral artery was opened in the inguinal region and the leg was perfused by blood delivered through a sigma motor pump at constant rate. The flow resistance (the pressure) was recorded via a pressure transudcer connected to the catheter distally to the pump. […] An isoprenaline dose giving 70-80% of the maximal chronotropic response was determined. […] Ten minutes before each isoprenaline injection, the tested substances were administered intravenously for two minutes, starting with a dose of 0.01 mg/kg and increasing each subsequent dose fourfold. The intrinsic effects of the test substances were determined. The dose producing 50% blockade of the isoprenaline responses was evaluated from the plotted log dose-percent blockade diagrams.
row,SMILES,Emax
1,CCOC(=O)NCCc1ccc(OCC(O)CNC(C)C)cc1 (centres unmarked),0%
2,COC(=O)NCCc1ccc(OCC(O)CNC(C)C)cc1 (centres unmarked) [(no label)],0%

# Same assay, conditions: Felis catus; reserpinized cat, pentobarbital anaesthesia, intravenous; read-out: Intrinsic activity % of maximal isoprenaline heart rate
row,SMILES,Emax
1,"COCCc1ccc(OCC(O)CNC(C)C)cc1 (stereo not drawn) [Ex. I, 1-isopropylamino-3-[p-(β-methoxyethyl)-phenoxy]-propanol-2]",0%
2,"CCOCCc1ccc(OCC(O)CNC(C)C)cc1 (stereo not drawn) [Ex. II, 1-isopropylamino-3-[p-(β-ethoxyethyl)-phenoxy]-propanol-2]",0%
3,"CCOCc1ccc(OCC(O)CNC(C)C)cc1 (centres unmarked) [Ex. III, 1-isopropylamino-3-(p-ethoxymethyl-phenoxy)-propanol-2]",0%
4,"C=CCc1ccccc1OCC(O)CNC(C)C (centres unmarked) [alprenolol, reference compound]",20%

# Molecular target: T1, β-receptors of the heart (Felis catus, UniProt Q9TST6)
# T1 construct: Intravenously injected isoprenaline increased the heart rate and reduced the perfusion pressure; from tissue; host or cells: heart of the intact anaesthetized, reserpinized, vagotomized cat (in vivo)
# T1 sequence (Q9TST6 whole entry, the tested form may be a part): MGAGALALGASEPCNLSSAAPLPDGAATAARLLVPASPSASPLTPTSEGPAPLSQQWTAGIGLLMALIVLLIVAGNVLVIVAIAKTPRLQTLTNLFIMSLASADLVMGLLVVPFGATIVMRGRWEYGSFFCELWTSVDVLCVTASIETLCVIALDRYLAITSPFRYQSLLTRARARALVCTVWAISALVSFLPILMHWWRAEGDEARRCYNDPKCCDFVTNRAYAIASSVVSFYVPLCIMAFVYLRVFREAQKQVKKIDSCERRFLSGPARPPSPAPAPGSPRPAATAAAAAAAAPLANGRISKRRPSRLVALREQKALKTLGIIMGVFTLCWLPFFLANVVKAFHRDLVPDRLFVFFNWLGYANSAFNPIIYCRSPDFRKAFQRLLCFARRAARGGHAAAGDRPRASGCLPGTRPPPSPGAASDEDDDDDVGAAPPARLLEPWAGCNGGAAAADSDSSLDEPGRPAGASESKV
# Test: β-blocking activity on heart rate (isoprenaline response) in reserpinized cats
# Format: in vivo, cat
# Details: cat, iv, read-out: β-blockade Heart rate ED50
# Description: (§3) The acute LD50 in mice was evaluated. Alprenolol was used as a reference substance.
# as §2
# (§4) The heart rate was recorded on an Offner cardiotachometer triggered by the EKG-complex. Mean arterial blood pressure was recorded from a carotid artery. The peripheral resistance was measured in one of the legs of the cat in the following way: The femoral artery was opened in the inguinal region and the leg was perfused by blood delivered through a sigma motor pump at constant rate. The flow resistance (the pressure) was recorded via a pressure transudcer connected to the catheter distally to the pump. The paw was excluded from the circulation by a tight ligature Intravenously injected isoprenaline increased the heart rate and reduced the perfusion pressure. An isoprenaline dose giving 70-80% of the maximal chronotropic response was determined. This dose (usually 0.1 μg/kg) was then repeated with 20 minute intervals. Ten minutes before each isoprenaline injection, the tested substances were administered intravenously for two minutes, starting with a dose of 0.01 mg/kg and increasing each subsequent dose fourfold. The intrinsic effects of the test substances were determined. The dose producing 50% blockade of the isoprenaline responses was evaluated from the plotted log dose-percent blockade diagrams.
row,SMILES,ED50
1,"COCCc1ccc(OCC(O)CNC(C)C)cc1 (stereo not drawn) [Ex. I, 1-isopropylamino-3-[p-(β-methoxyethyl)-phenoxy]-propanol-2]",0.4 mg/kg
2,"C=CCc1ccccc1OCC(O)CNC(C)C (centres unmarked) [alprenolol, reference compound]",0.1 mg/kg

# Same assay, conditions: reserpinized cat, intravenous; dose producing 50% blockade of isoprenaline response; read-out: β-blockade Heart rate ED50
row,SMILES,ED50
1,CCOC(=O)NCCc1ccc(OCC(O)CNC(C)C)cc1 (centres unmarked),0.3 mg/kg
2,COC(=O)NCCc1ccc(OCC(O)CNC(C)C)cc1 (centres unmarked) [(no label)],0.4 mg/kg
3,"CCOCCc1ccc(OCC(O)CNC(C)C)cc1 (stereo not drawn) [Ex. II, 1-isopropylamino-3-[p-(β-ethoxyethyl)-phenoxy]-propanol-2]",0.3 mg/kg
4,"CCOCc1ccc(OCC(O)CNC(C)C)cc1 (centres unmarked) [Ex. III, 1-isopropylamino-3-(p-ethoxymethyl-phenoxy)-propanol-2]",0.4 mg/kg

# Molecular target: T2, peripheral vascular β-receptors (Felis catus, UniProt Q9TST5)
# T2 construct: from tissue; host or cells: vascular bed of the perfused leg of the anaesthetized, reserpinized cat, paw excluded (in vivo)
# T2 sequence (Q9TST5 whole entry, the tested form may be a part): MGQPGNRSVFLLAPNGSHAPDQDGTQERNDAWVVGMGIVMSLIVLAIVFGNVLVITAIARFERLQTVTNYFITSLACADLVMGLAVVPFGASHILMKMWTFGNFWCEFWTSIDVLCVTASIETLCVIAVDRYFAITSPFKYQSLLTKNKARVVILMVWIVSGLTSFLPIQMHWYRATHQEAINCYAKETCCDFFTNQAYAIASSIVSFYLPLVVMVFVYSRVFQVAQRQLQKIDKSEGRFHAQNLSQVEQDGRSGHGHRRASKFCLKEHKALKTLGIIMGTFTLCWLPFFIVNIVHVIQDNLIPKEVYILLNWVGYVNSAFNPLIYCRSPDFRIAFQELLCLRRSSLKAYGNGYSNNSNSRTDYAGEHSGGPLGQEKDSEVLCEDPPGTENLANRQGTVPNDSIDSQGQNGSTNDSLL
# Test: β-blocking activity on peripheral vascular resistance (vasodilator response to isoprenaline) in reserpinized cats
# Format: in vivo, cat
# Details: cat, iv, read-out: β-blockade peripheral vascular resistance ED50
# Description: as §3, §2, §4
row,SMILES,ED50
1,"COCCc1ccc(OCC(O)CNC(C)C)cc1 (stereo not drawn) [Ex. I, 1-isopropylamino-3-[p-(β-methoxyethyl)-phenoxy]-propanol-2]",3 mg/kg
2,"C=CCc1ccccc1OCC(O)CNC(C)C (centres unmarked) [alprenolol, reference compound]",0.05 mg/kg

# Same assay, conditions: reserpinized cat, intravenous; dose producing 50% blockade of isoprenaline response; read-out: β-blockade peripheral vascular resistance ED50
row,SMILES,ED50
1,CCOC(=O)NCCc1ccc(OCC(O)CNC(C)C)cc1 (centres unmarked),25 mg/kg
2,COC(=O)NCCc1ccc(OCC(O)CNC(C)C)cc1 (centres unmarked) [(no label)],19 mg/kg
3,"CCOCCc1ccc(OCC(O)CNC(C)C)cc1 (stereo not drawn) [Ex. II, 1-isopropylamino-3-[p-(β-ethoxyethyl)-phenoxy]-propanol-2]",4 mg/kg
4,"CCOCc1ccc(OCC(O)CNC(C)C)cc1 (centres unmarked) [Ex. III, 1-isopropylamino-3-(p-ethoxymethyl-phenoxy)-propanol-2]",6 mg/kg

# Tested on: not listed separately
# Test: in vivo
# Details: mouse, ip
# Description: as §1
row,SMILES,LD50
1,CCOC(=O)NCCc1ccc(OCC(O)CNC(C)C)cc1 (centres unmarked),200 mg/kg
2,COC(=O)NCCc1ccc(OCC(O)CNC(C)C)cc1 (centres unmarked) [(no label)],125 mg/kg
3,"COCCc1ccc(OCC(O)CNC(C)C)cc1 (stereo not drawn) [Ex. I, 1-isopropylamino-3-[p-(β-methoxyethyl)-phenoxy]-propanol-2]",200 mg/kg
4,"CCOCCc1ccc(OCC(O)CNC(C)C)cc1 (stereo not drawn) [Ex. II, 1-isopropylamino-3-[p-(β-ethoxyethyl)-phenoxy]-propanol-2]",150 mg/kg
5,"CCOCc1ccc(OCC(O)CNC(C)C)cc1 (centres unmarked) [Ex. III, 1-isopropylamino-3-(p-ethoxymethyl-phenoxy)-propanol-2]",175 mg/kg
